Data on one molecule can be found in the kinase profiling compilation of Christmann-Franck et al. (2016).

What all share (assay): KINOMEscan competition binding
Common to all, as to details: compound 10.0 µM

Assay [1] concerns the target MAPK13 (human) (UniProt O15264).
Assay [2] concerns the target TNNI3K (human) (UniProt Q59H18).
Assay [3] deals with BMPR1B (human) (UniProt O00238).
For assay [4], the target named is TNK1 (human) (UniProt Q13470).
Chain of TNK1 (human) (Q13470 whole entry, looked up): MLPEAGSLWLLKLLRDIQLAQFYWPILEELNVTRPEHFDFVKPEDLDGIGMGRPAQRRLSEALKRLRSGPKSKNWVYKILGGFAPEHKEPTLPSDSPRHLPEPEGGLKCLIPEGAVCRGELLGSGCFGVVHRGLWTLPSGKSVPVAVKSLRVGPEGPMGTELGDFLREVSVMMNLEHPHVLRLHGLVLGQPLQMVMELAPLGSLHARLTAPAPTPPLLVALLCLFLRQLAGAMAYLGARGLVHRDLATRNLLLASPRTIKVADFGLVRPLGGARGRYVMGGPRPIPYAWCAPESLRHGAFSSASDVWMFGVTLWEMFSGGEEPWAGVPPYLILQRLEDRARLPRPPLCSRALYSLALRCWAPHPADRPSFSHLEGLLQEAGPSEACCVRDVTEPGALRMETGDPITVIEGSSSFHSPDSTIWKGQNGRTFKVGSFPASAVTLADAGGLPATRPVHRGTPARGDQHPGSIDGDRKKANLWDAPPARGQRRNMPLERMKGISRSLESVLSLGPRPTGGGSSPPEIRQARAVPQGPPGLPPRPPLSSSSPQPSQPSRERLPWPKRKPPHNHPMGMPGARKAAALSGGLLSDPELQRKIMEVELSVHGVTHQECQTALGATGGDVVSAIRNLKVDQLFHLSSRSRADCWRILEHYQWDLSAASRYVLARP

Chain of BMPR1B (human) (O00238 whole entry, looked up): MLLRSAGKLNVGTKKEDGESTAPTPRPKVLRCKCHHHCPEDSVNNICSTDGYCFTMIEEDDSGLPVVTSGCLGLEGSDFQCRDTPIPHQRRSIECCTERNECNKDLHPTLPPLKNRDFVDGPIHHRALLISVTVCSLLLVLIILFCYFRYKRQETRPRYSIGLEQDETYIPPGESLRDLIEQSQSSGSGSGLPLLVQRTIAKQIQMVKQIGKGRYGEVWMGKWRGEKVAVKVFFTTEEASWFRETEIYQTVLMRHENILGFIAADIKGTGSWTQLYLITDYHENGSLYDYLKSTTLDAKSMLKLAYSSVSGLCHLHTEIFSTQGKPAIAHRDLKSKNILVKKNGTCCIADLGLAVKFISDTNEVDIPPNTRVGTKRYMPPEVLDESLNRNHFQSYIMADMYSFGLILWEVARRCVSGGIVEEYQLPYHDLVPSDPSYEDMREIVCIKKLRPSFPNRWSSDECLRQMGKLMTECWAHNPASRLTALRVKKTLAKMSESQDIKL
Chain of MAPK13 (human) (O15264 whole entry, looked up): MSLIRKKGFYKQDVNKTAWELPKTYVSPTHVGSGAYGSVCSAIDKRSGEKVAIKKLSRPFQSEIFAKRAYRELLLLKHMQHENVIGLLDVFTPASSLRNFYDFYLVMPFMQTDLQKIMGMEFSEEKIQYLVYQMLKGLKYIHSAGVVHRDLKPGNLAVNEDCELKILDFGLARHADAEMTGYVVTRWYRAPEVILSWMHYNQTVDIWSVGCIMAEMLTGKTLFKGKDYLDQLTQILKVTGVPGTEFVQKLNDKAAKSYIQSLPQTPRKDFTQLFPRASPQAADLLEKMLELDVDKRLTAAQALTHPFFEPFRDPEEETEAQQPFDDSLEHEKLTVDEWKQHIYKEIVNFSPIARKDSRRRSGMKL
Chain of TNNI3K (human) (Q59H18 whole entry, looked up): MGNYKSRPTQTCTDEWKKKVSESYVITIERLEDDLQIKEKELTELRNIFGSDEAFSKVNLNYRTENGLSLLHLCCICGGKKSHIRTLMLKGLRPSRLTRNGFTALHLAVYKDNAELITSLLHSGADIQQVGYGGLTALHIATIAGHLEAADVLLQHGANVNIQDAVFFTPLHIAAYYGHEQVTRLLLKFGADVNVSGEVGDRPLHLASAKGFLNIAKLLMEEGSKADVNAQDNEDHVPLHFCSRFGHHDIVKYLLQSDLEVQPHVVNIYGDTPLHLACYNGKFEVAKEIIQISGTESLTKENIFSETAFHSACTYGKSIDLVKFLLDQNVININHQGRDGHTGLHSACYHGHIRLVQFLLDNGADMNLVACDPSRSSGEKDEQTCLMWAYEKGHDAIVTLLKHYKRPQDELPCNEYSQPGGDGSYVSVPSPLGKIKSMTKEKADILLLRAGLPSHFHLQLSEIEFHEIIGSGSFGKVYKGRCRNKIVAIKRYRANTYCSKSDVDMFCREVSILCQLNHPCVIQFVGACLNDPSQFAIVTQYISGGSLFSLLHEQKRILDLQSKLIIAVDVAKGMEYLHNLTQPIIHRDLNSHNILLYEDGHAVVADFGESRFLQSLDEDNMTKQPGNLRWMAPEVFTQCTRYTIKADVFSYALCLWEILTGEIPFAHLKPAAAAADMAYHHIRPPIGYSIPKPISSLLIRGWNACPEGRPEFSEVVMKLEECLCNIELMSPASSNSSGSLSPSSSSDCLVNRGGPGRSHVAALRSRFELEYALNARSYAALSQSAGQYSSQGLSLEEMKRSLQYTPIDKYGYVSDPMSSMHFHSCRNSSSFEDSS

As to `Cc1cc([C@@H](C)Nc2ccccc2C(=O)O)c2nc(N3CCOCC3)cc(=O)n2c1`, the kinase still bound, per cent of control in assay [1] is 100%; in assay [2] it was 15%; in assay [3] it was 89%; in assay [4], 91%.
